The assay concerns TNBS induced IBD rats. Nature of the assay: Experiment III: TNBS-ethanol induced IBD in rats. The note with it: for Colonic lesion score: CON 0, M 6.00 ± 3.25; for Colon weight of length: CON 0.106 ± 0.011, M 0.376 ± 0.133; for MDA / MPO / SOD: colon homogenate; for MDA: CON 0.0360 ± 0.00632, M 0.0274 ± 0.0055; for MPO: CON 21.993 ± 2.061, M 134.038 ± 1.979; for SOD: CON 46.400 ± 8.202, M 38.005 ± 4.121. The assay is classed as in vivo, Wistar rats. The source says:
Wister rats were randomly divided into seven groups. There are four […] in each group, including normal control (CON) group, Model (M) group, positive control (SASP) group, diammonium glycyrrhizinate gavage administration (DI) group, diammonium glycyrrhizinate low dose (DGD) group, diammonium glycyrrhizinate medium dose (DGZ) group, and diammonium glycyrrhizinate high dose (DGG) group. No water and diets restriction were applied to mice during the period of the experiment.
Rats were anesthetized by ether. TNBS dissolved in 30% ethanol were injected into rat colon 8 cm in depth through anus with an i.v. tubing. The concentration of TNBS was 100 mg/Kg at the volumes of 0.20 ml/100 g. The rats were held up side down for 1 minute after the injection before released back to the cages.
There are seven groups total in this test. Rats in all groups were treated identically to create IBD models and the experimental conditions are described in the following.
Normal control (Con) group: Both TNBS-ethanol solution and treated drugs were replaced by normal saline. The dose of drug for treatment was 0.20 ml/100 g. Model (M) group: After creating the TNBS-ethanol induced IBD model in rats, normal saline instead of drug was used as a blank control for the comparison of drug treatment. The drug dose of IBD treatment was 0.20 ml/100 g. SASP group: SASP (22.5 mg/100 g) was used as a positive control. SASP was applied to rats through anus after ether anesthesia. Diammonium glycyrrhetate gavage administration (DI) group: Diammonium glycyrrhetate (10 mg/kg) was provided to rats by gavage after ether anesthesia. Diammonium glycyrrhetate, anal administration, low dose (DGD) group: Diammonium glycyrrhetate (2 mg/kg) was provided to rats through anus after ether anesthesia. Diammonium glycyrrhetate, anal administration, medium dose (DGZ) group: Diammonium glycyrrhetate (10 mg/kg) was provided to rats through anus after ether anesthesia. Diammonium glycyrrhetate, anal administration, high dose (DGG) group: Diammonium glycyrrhetate (50 mg/kg) was provided to rats through anus after ether anesthesia.
During the experimental period, daily activities and body weights of rats were investigated and recorded. Ten days after IBD model establishment, fasting was introduced to rats but water was provided continuously. Before sacrificing the rats, feces samples were taken for OB test; eyeballs were removed for blood sampling and serum samples were obtained after centrifugation. Radioimmunoassay kits were used to detect IL-1β, IL-6 and TNF-α in serum. The rats were cervical executed; organs of spleen and thymus were removed and weighted for the index calculation. The whole length of colon was weighted; weight per unit length of colon was calculated. The degrees of colon injury were evaluated according to the reference 23 with some modifications. We included the changes of intestinal adhesion, colon ulcer, and inflammatory as the score marks. The standard of score is same as we mentioned previously. The 3 mm colon samples were taken from the end part of colon; fixed by either neutral formaldehyde solution or 2.5% of glutaraldehyde solution for anatomy dissecting. The samples fixed by neutral formaldehyde solution were sent to perform H-E staining and immunohistochemical staining (IL-10, COX-II, and ICAM-1). The samples fixed by 2.5% of glutaraldehyde solution were photo-imaged by both scanning electron microscope and transmission electron microscope. The rest of samples were handled at ice-cold temperature to make 10% homogenization solution and stored at −20° C. for future use. MOP, SOD, MDA and amounts of tissue proteins were determined by Maehly, Pyrogallol, TBA, and Lowry methods.

Setting [1] is: DG medium dose group, through anus 10 mg/kg.
[2] abbreviates: DGD group: through anus, low dose 2 mg/kg.
Where [3] appears, read: DGG group: through anus, high dose 50 mg/kg.
Where [4] appears, read: DGZ group: through anus, medium dose 10 mg/kg.
The mark [5] stands for this setting: SASP group: 22.5 mg/100 g through anus.
Setting [6] is: positive control (SASP) group: 22.5 mg/100 g through anus.

As for `CC1(C(=O)[O-])CCC2(C)CCC3(C)C(=CC(=O)C4C5(C)CCC([O-])C(C)(C)C5CCC43C)C2C1.[Na+].[Na+]` (stereo not shown) [Disodium glycyrrhetate, disodium glycyrrhetate], the “HE staining of colon tissue (FIG. 3)” value was “less severe of symptoms with no ulcer formation” (DG gavage administration group, 10 mg/kg); “relieved symptoms and no ulcer formation is observed” (DG high dose group, through anus 50 mg/kg); “relatively severe symptoms but without ulcer formation” (DG low dose group, through anus 2 mg/kg); “no ulcer formation is seen” under setting [1]. Under setting [1], the “colon mucosa by scanning electron microscope (FIG. 4)” value is “relieved symptoms with less swelling”. For the same molecule, the Colonic lesion score runs as follows: (DGD group: through anus, low dose 2 mg/kg (table head: mg/100 g)) 3.00 ± 1.69^ΔΔ; (DGG group: through anus, high dose 50 mg/kg (table head: mg/100 g)) 1.50 ± 0.89^ΔΔ; (DGZ group: through anus, medium dose 10 mg/kg (table head: mg/100 g)) 2.50 ± 1.39^ΔΔ; (DI group: gavage, 10 mg/kg (table head: mg/100 g)) 2.00 ± 1.20^ΔΔ. In addition, the “Colon weight of length” value reads like this: under setting [2], 0.385 ± 0.218 g/cm; under setting [3], 0.174 ± 0.059 g/cm; under setting [4], 0.177 ± 0.065 g/cm; (DI group: gavage, 10 mg/kg) 0.240 ± 0.085 g/cm. The MDA reads like this: under setting [2], 0.0431 ± 0.0243 µmol/mg; under setting [3], 0.0338 ± 0.0115 µmol/mg; under setting [4], 0.0365 ± 0.0151 µmol/mg; (DI group: gavage, 10 mg/kg) 0.0907 ± 0.0302 µmol/mg. Moreover, the MPO runs as follows: under setting [2], 141.993 ± 2.494 U/g; under setting [3], 111.753 ± 24.864 U/g; under setting [4], 83.868 ± 16.465^Δ U/g; (DI group: gavage, 10 mg/kg) 100.576 ± 10.137^ΔΔ U/g. Moreover, the SOD runs as follows: under setting [2], 28.847 ± 16.942 U/ml; under setting [3], 59.984 ± 3.205^Δ U/ml; under setting [4], 46.095 ± 8.065 U/ml; (DI group: gavage, 10 mg/kg) 18.774 ± 8.700 U/ml.

As for `O=C(O)c1cc(/N=N/c2ccc(S(=O)(=O)Nc3ccccn3)cc2)ccc1O` [SASP, Sulfasalazine, reference compound], under setting [5], the Colonic lesion score was 3.00 ± 1.69^ΔΔ, the “Colon weight of length” value is 0.354 ± 0.087 g/cm, the MDA stood at 0.0594 ± 0.0287 µmol/mg and the MPO is reported as 44.916 ± 3.525^ΔΔ U/g. For the same molecule, under setting [5], the SOD amounted to 33.884 ± 2.656 U/ml. Further, under “SASP group: 22.5 mg/100 g through anus, CON 0.9302 ± 0.0984, M 0.0319 ± 0.1504”, the Thymus index turned out to be 0.2375 ± 0.0792 mg/g. The molecule further came in with a Spleen index (SASP group: 22.5 mg/100 g through anus, CON 2.309 ± 0.135, M 3.893 ± 0.210) of 3.326 ± 0.552 mg/g. Moreover, under setting [6], the “HE staining of colon tissue (FIG. 3)” value is recorded as “symptoms are reduced with no ulcers formation” and the “colon mucosa by scanning electron microscope (FIG. 4)” value is reported as “symptoms were relieved but with swelling in mucosa layer”.

For the origin of these results see patent US20100087385A1 (priority 2006, published 2010).
